This experiment deals with ENR-Apt 6 (DNA, aptamer) GCGGCTGCTTACGGATAGAAGGCGGATGGAGAAATGAACCGGGGTGGTCCGTTGTCCATCCGTAAAGCCCAAGTC
Nature of the experiment: graphene oxide fluorescence quenching/recovery, aptamer titrated. The conditions noted are these: aptamer 25-200 nM in ultrapure water; 20 μg/mL GO; 250 μM ENR solution added (1:1:1 v/v); apparent.

Regarding `CCN1CCN(c2cc3c(cc2F)c(=O)c(C(=O)O)cn3C2CC2)CC1`, the Kd is listed as 35.08 nM.

Values taken from paper PMC10969504 (2024).
